Patent US8063049B2, “Inhibitors of MEK” (Ardea Biosciences, Inc., priority 2007, dated 2011)

Experiments:
[1] = system: phosphorylated ERK in MDA-MB-231 breast cancer cells; experiment: Western blotting for phosphorylated ERK in EGF-stimulated MDA-MB-231 cells; assay type: cell-based; conditions: Homo sapiens, 30 min compound, 100 ng/ml EGF for 5 min, phospho-ERK Western blot
Method: Effects of compounds in the cell can be determined by Western blotting for phosphorylated ERK. MDA-MB-231 breast cancer cells are plated in a 48 well plate at 20,000 cells per well and are grown in a 37° humidified CO2 incubator. The following day, the growth media (DMEM+10% fetal bovine serum) is removed and replaced with starve media (DMEM+0.1% fetal bovine serum). Cells are incubated in the starve media for sixteen hours and then treated with a range of compound concentrations for thirty minutes.
After incubation with compound, cells are stimulated with 100 ng/ml EGF for five minutes. The cells are then lysed and analyzed by Western blot using a monoclonal antibody raised to phosphorylated ERK. The signal is amplified using a secondary antibody conjugated to a near-IR dye and detected on a Licor Odyssey scanner.

[2] = target: T1, Human GST-MEK1CA (constitutively active MEK1, Ser218Asp and Ser222Asp) (Homo sapiens, UniProt Q02750, S218D/S222D); experiment: MEK1 enzymatic activity assay (33P incorporation, MEK1CA/ERK2/MBP); assay type: biochemical; conditions: MEK1CA with ERK2, MBP and [γ33P]ATP; 30 min preincubation, 60 min reaction
T1 construct: GST; made in house; host or cells: Escherichia coli
T1 sequence (Q02750 whole entry S218D/S222D): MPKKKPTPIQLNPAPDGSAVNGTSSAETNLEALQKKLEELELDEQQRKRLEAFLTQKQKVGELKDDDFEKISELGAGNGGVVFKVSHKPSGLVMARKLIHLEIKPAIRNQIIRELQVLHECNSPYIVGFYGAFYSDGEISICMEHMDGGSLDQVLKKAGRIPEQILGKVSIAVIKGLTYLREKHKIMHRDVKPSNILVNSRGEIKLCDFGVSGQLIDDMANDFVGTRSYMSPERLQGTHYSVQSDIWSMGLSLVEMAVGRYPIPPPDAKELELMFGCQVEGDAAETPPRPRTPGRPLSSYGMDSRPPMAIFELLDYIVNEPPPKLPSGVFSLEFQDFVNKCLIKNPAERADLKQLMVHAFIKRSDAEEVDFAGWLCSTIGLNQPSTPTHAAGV
Text: Materials and preparation of reagents: Human GST-MEK1 and the constitutively […] active allele GST-MEK1^CA (harboring the mutations Ser218Asp and Ser222Asp) can be subcloned into the yeast expression vector pGEM4Z (Promega, Madison, Wis.) from the wild type human MEK1 cDNA. GST-MEK1CA was expressed in Escherichia coli and can be partially purified using Glutathione Sepharose 4B affinity resin (Amersham Pharmacia Biotech, Piscataway, N.J.). The ERK2 allele can be subcloned from MAPK2/Erk2 cDNA (wild type) in […] pUSEamp (Upstate Biotechnology, Inc., Waltham, Mass.) into the vector pET21a (Novagen, Madison, Wis.) resulting in an N-terminal histidine-tagged mouse ERK2 allele. ERK2 can be expressed and purified to homogeneity [Zhang, 1993 #33]. Myelin basic protein (MBP) can be purchased from Gibco BRL (Rockville, Md.). EasyTides adenosine 5′-triphosphate (ATP) ([γ-33P]) (NEN Perkin Elmer, Wellesley, Mass.) is the source of radiolabel for all kinase reactions. Activated Raf-1 (truncated) and activated MAPKinase 2/ERK2 can be purchased from Upstate, Inc. (Lake Placid, N.Y.). 4-20% Criterion Precast gels can be purchased from Bio-Rad (Hercules, Calif.).
Determination of enzymatic activity: Compounds are diluted from dimethylsulfoxide (DMSO) stocks into 1×HMNDE (20 mM HEPES pH 7.2, 1 mM MgCl2, 100 mM NaCl, 1.25 mM DTT, 0.2 mM EDTA). A typical 25-microliter assay contained 0.002 nanomoles MEK1^CA, 0.02 nanomoles ERK2, 0.25 nanomoles MBP, 0.25 nanomoles unlabeled ATP, and 0.1 μCi [γ33P] ATP. The screening assay essentially comprises four additions. Five μl of diluted compound are dispensed to 96-well assay plates. Ten μl of 2.5× enzyme cocktail (MEK1^CA and ERK2 only) are then added to each well followed by a preincubation for 30 minutes at ambient temperature. Ten μl of 2.5× substrate cocktail (labeled and unlabeled ATP plus MBP) are then added, followed by incubation for 60 minutes at ambient temperature. Finally, 100 μl of 10% trichloroacetic acid (TCA) are added and incubated for 30 minutes at room temperature to halt the reaction and precipitate radiolabeled protein products. Reaction products are harvested on glass fiber 96 well filter plates prewetted with water and 1% pyrophosphate. The filter plate is then washed 5 times with water. Water is displaced by absolute ethanol and the plate is allowed to air dry for 30 minutes at room temperature. A back seal is applied manually and 40 μl of scintillation cocktail are dispensed to each well. A top seal is applied and the plate is counted in the TopCount for two seconds per well.

SMILES	EC50 [1] [nM]	IC50 [2] [nM]
O=S(=O)(Nc1cn2ccnc2c(Cl)c1Nc1ccc(Br)cc1Cl)C1(CCO)CC1 [Example 10, N-(7-(4-bromo-2-chlorophenylamino)-8-chloroimidazo[1,2-a]pyridin-6-yl)-1-(2-hydroxyethyl)cyclopropane-1-sulfonamide]	10 to 100	100 to 1000
Cc1c(Nc2ccc(Br)cc2Cl)c(NS(=O)(=O)C2CC2)cn2ccnc12 [Example 17, N-(7-(4-bromo-2-chlorophenylamino)-8-methylimidazo[1,2-a]pyridin-6-yl)cyclopropanesulfonamide]	10 to 100	100 to 1000
Cc1ncnc2c(F)c(Nc3ccc(I)cc3F)c(NS(=O)(=O)C3CC3)cc12 [Example 34, N-(7-(2-fluoro-4-iodophenylamino)-8-fluoro-4-methylquinazolin-6-yl)cyclopropanesulfonamide]	100 to 1000	10000 to 50000
Cc1c(Nc2ccc(Br)cc2Cl)c(NS(=O)(=O)C2(CCO)CC2)cn2ccnc12 [Example 18, N-(7-(4-bromo-2-chlorophenylamino)-8-methylimidazo[1,2-a]pyridin-6-yl)-1-(2-hydroxyethyl)cyclopropane-1-sulfonamide]	10 to 100	1000 to 10000
Cc1noc2c(F)c(Nc3ccc(I)cc3F)c(NS(=O)(=O)C3(CCO)CC3)cc12 [Example 4, 1-(2-hydroxyethyl)-N-(7-fluoro-6-(2-fluoro-4-iodophenylamino)-3-methylbenzo[d]isoxazol-5-yl)cyclopropane-1-sulfonamide]	1 to 10	10 to 100
O=S(=O)(Nc1cn2ccnc2c(Cl)c1Nc1ccc(Br)cc1Cl)C1CC1 [Example 9, N-(7-(4-bromo-2-chlorophenylamino)-8-chloroimidazo[1,2-a]pyridin-6-yl)cyclopropanesulfonamide]	10 to 100	100 to 1000
Cc1nn(C)c2c(F)c(Nc3ccc(I)cc3F)c(NS(=O)(=O)C3CC3)cc12 [Example 30, N-(6-(2-fluoro-4-iodophenylamino)-7-fluoro-1,3-dimethyl-1H-indazol-5-yl)cyclopropanesulfonamide]	100 to 1000	10000 to 50000
Cc1onc2c(F)c(Nc3ccc(I)cc3F)c(NS(=O)(=O)C3CC3)cc12 [Example 7, N-(7-fluoro-6-(2-fluoro-4-iodophenylamino)-3-methylbenzo[c]isoxazol-5-yl)cyclopropanesulfonamide]	10 to 100	10 to 100
Cc1c(Nc2ccc(I)cc2F)c(NS(=O)(=O)C2(CC(O)CO)CC2)cn2ccnc12 (centres unmarked) [Example 16, 1-(2,3-dihydroxypropyl)-N-(7-(2-fluoro-4-iodophenylamino)-8-methylimidazo[1,2-a]pyridin-6-yl)cyclopropane-1-sulfonamide]	10 to 100	10 to 100

The next lines start with the values.

EC50 [1] [nM]	IC50 [2] [nM]	SMILES
0.1 to 1	1 to 10	Cc1noc2c(F)c(Nc3ccc(I)cc3F)c(NS(=O)(=O)C3(CC(O)CO)CC3)cc12 (centres unmarked) [Example 5, 1-(2,3-dihydroxypropyl)-N-(7-fluoro-6-(2-fluoro-4-iodophenylamino)-3-methylbenzo[d]isoxazol-5-yl)cyclopropane-1-sulfonamide]
1 to 10	10 to 100	O=S(=O)(Nc1cn2ccnc2c(Cl)c1Nc1ccc(I)cc1F)C1(CCO)CC1 [Example 12, N-(8-chloro-7-(2-fluoro-4-iodophenylamino)imidazo[1,2-a]pyridin-6-yl)-1-(2-hydroxyethyl)cyclopropane-1-sulfonamide]
1 to 10	10 to 100	Cn1cnc2c(F)c(Nc3ccc(I)cc3F)c(NS(=O)(=O)C3(CCO)CC3)cc21 [Example 2, N-(4-fluoro-5-(2-fluoro-4-iodophenylamino)-1-methyl-1H-benzo[d]imidazol-6-yl)-1-(2-hydroxyethyl)cyclopropane-1-sulfonamide]
1 to 10	10 to 100	Cc1noc2c(F)c(Nc3ccc(I)cc3F)c(NS(=O)(=O)C3CC3)cc12 [Example 3, N-(7-fluoro-6-(2-fluoro-4-iodophenylamino)-3-methylbenzo[d]isoxazol-5-yl)cyclopropanesulfonamide]
1 to 10	1000 to 10000	Cc1c2cc(NS(=O)(=O)C3CC3)c(Nc3ccc(I)cc3F)c(F)c2nn1C [Example 29, N-(6-(2-fluoro-4-iodophenylamino)-7-fluoro-2,3-dimethyl-2H-indazol-5-yl)cyclopropanesulfonamide]
1 to 10	100 to 1000	Cc1noc2c(F)c(Nc3ccc(Br)cc3Cl)c(NS(=O)(=O)C3CC3)cc12 [Example 6, N-(7-fluoro-6-(4-bromo-2-chlorophenylamino)-3-methylbenzo[d]isoxazol-5-yl)cyclopropanesulfonamide]
0.1 to 1	10 to 100	Cc1c(Nc2ccc(I)cc2F)c(NS(=O)(=O)C2CC2)cn2ccnc12 [Example 14, N-(7-(2-fluoro-4-iodophenylamino)-8-methylimidazo[1,2-a]pyridin-6-yl)cyclopropanesulfonamide]
